For one assay, the target named is human A2B receptors (Homo sapiens (Human), UniProt P29275). The experiment in a line: A2B antagonism in cAMP cell-based assay (LANCE cAMP, HEK293). The settings on record: HEK293 cells expressing human A2B receptor. Summed up:
(§1)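 HEK293 cells expressing human A2A or A2B, in HBSS/5 mM HEPES/200 nM rolipram, were preincubated with compound (0.5–10,000 nM, 0.25% DMSO) 30 min at 37° C. Adenosine was then added from 300 nM (A2A) or 600 nM (A2B) solution for 30 min.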
(Time-resolved FRET reads energy transfer from a long-lived donor to a nearby acceptor.)

A further assay concerns the target human A2A receptors (Homo sapiens (Human), UniProt P29274). The experiment in a line: A2A antagonism in cAMP cell-based assay (LANCE cAMP, HEK293). The settings on record: HEK293 cells expressing human A2A receptor. Summed up: as §1

Sequence of human A2A receptors (P29274 whole entry): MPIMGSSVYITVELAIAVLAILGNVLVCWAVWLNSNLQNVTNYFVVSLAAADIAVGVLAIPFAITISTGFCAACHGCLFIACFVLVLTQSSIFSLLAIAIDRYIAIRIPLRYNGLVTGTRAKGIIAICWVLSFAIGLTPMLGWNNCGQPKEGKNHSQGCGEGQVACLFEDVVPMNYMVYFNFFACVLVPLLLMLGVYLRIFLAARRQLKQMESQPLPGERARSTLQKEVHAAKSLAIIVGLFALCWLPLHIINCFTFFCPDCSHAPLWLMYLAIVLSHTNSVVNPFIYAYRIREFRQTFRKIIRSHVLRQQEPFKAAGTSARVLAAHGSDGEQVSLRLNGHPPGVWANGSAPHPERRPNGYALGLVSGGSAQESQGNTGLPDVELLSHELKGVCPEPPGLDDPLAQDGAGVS
Sequence of human A2B receptors (P29275 whole entry): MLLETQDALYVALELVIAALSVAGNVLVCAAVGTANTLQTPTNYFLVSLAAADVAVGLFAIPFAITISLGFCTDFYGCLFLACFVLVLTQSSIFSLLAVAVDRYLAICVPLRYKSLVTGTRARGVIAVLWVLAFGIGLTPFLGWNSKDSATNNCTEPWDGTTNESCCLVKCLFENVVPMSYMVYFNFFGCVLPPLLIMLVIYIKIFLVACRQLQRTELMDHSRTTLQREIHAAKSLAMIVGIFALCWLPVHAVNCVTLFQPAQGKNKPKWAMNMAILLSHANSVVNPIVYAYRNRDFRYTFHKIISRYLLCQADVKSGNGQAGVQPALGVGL

One may read the IC50 as the midpoint of a concentration-inhibition curve. A low value points to greater potency in that assay. For `COc1cc(F)cc2c1nc(N)n1nc(C3CCC(C)N(c4cnn(C(C)(C)C(C)O)c4)C3)nc21` (single isomer, unassigned) [Example 269, (S or R)-3-(4-((2S,5R or 2R,5S)-5-(5-amino-9-fluoro-7-methoxy-[1,2,4]triazolo[1,5-c]quinazolin-2-yl)-2-methylpiperidin-1-yl)-1H-pyrazol-1-yl)-3-methylbutan-2-ol], the IC50 against human A2B receptors worked out at 6.4 nM; against human A2A receptors it was 1.2 nM.

Turning to `COc1cc(F)cc2c1nc(N)n1nc(C3CCC(C)N(c4cnn(C(C)(C)C(C)O)c4)C3)nc21` (single isomer, unassigned) [Example 270, (R or S)-3-(4-((2R,5S or 2S,5R)-5-(5-amino-9-fluoro-7-methoxy-[1,2,4]triazolo[1,5-c]quinazolin-2-yl)-2-methylpiperidin-1-yl)-1H-pyrazol-1-yl)-3-methylbutan-2-ol], the half-inhibitory concentration (IC50) on human A2B receptors worked out at 30.3 nM; against human A2A receptors, 5.2 nM.

Consider `COc1cc(F)cc2c1nc(N)n1nc(C3CCC(C)N(c4cnn(C(C)(C)C(C)O)c4)C3)nc21` (single isomer, unassigned) [Example 271, (S or R)-3-(4-((2R,5S or 2S,5R)-5-(5-amino-9-fluoro-7-methoxy-[1,2,4]triazolo[1,5-c]quinazolin-2-yl)-2-methylpiperidin-1-yl)-1H-pyrazol-1-yl)-3-methylbutan-2-ol], for which the IC50 was 242 nM at human A2B receptors and 21.4 nM on human A2A receptors.

For `COc1cc2nc(N)n3nc(C4CCC(C)N(c5cnn(CC6(O)CC6)c5)C4)nc3c2cc1F` (single isomer, unassigned) [Example 272, 1-((4-((2S,5R or 2R,5S)-5-(5-amino-9-fluoro-8-methoxy-[1,2,4]triazolo[1,5-c]quinazolin-2-yl)-2-methylpiperidin-1-yl)-1H-pyrazol-1-yl)methyl)cyclopropan-1-ol], the IC50 at human A2B receptors was 5800 nM; against human A2A receptors, 43.6 nM.

In the case of `COc1cc2nc(N)n3nc(C4CCC(C)N(c5cnn(CC6(O)CC6)c5)C4)nc3c2cc1F` (single isomer, unassigned) [Example 273, 1-((4-((2R,5S or 2S,5R)-5-(5-amino-9-fluoro-8-methoxy-[1,2,4]triazolo[1,5-c]quinazolin-2-yl)-2-methylpiperidin-1-yl)-1H-pyrazol-1-yl)methyl)cyclopropan-1-ol], the results for the IC50 at human A2B receptors and on human A2A receptors were 26.7 nM and 1.2 nM, respectively.

With `COc1cc2nc(N)n3nc(C4CC(C)CN(c5cnn(CC(C)(C)O)c5C)C4)nc3c2cc1F` (single isomer, unassigned) [Example 274, 1-((4-((3R,5S or 3S,5R)-5-(5-amino-9-fluoro-8-methoxy-[1,2,4]triazolo[1,5-c]quinazolin-2-yl)-5-methylpiperidin-1-yl)-5-methyl-1H-pyrazol-1-yl)-2-methylpropan-2-ol], the values for the IC50 against human A2B receptors and at human A2A receptors were 70.5 nM and 0.7 nM, respectively.

In the case of `COc1cc2nc(N)n3nc(C4CC(C)CN(c5cnn(CC(C)(C)O)c5C)C4)nc3c2cc1F` (single isomer, unassigned) [Example 275, 1-((4-((3S,5R or 3R,5S)-5-(5-amino-9-fluoro-8-methoxy-[1,2,4]triazolo[1,5-c]quinazolin-2-yl)-5-methylpiperidin-1-yl)-5-methyl-1H-pyrazol-1-yl)-2-methylpropan-2-ol], the IC50 was 2470 nM against human A2B receptors and 15.6 nM at human A2A receptors.

For the compound `COc1cc2nc(N)n3nc([C@@H]4CCCN(c5cnn(C(C)(C)CO)c5)C4)nc3c2cc1F` [Example 151, (R)-2-(4-(3-(5-amino-9-fluoro-8-methoxy-[1,2,4]triazolo[1,5-c]quinazolin-2-yl)piperidin-1-yl)-1H-pyrazol-1-yl)-2-methylpropan-1-ol], the IC50 is 56.9 nM against human A2B receptors and 3.8 nM against human A2A receptors.

Consider `COc1cc2nc(N)n3nc([C@@H]4CCCN(c5cnn(CCC(C)(C)O)c5)C4)nc3c2cc1F` [Example 152, (R)-4-(4-(3-(5-amino-9-fluoro-8-methoxy-[1,2,4]triazolo[1,5-c]quinazolin-2-yl)piperidin-1-yl)-1H-pyrazol-1-yl)-2-methylbutan-2-ol], for which the results for the IC50 at human A2B receptors and at human A2A receptors were 371 nM and 5.9 nM, respectively.

Turning to `CC(C)(O)Cn1cc(N2CCC[C@@H](c3nc4c5cc(F)c(OC(F)F)cc5nc(N)n4n3)C2)cn1` [Example 153, (R)-1-(4-(3-(5-amino-8-(difluoromethoxy)-9-fluoro-[1,2,4]triazolo[l,5-c]quinazolin-2-yl)piperidin-l-yl)-1H-pyrazol-1-yl)-2-methylpropan-2-ol], the IC50 against human A2B receptors amounted to 720 nM; at human A2A receptors it was 7.4 nM.

Regarding `Cc1nn(CC(C)(C)O)cc1N1CCC[C@@H](c2nc3c4cc(F)c(OC(F)F)cc4nc(N)n3n2)C1` [Example 154, (R)-1-(4-(3-(5-amino-8-(difluoromethoxy)-9-fluoro-[1,2,4]triazolo[l,5-c]quinazolin-2-yl)piperidin-l-yl)-3-methyl-1H-pyrazol-1-yl)-2-methylpropan-2-ol], the IC50 amounted to 974 nM against human A2B receptors and 1.2 nM on human A2A receptors.

For “(R or S)-1-(4-((2S,5R or 2R5S)-5-(5-amino-9-fluoro- 8-methoxy-[1,2,4]triazolo[1,5-c]quinazolin-2-yl)-2- methylpiperidin-1-yl)-1H-pyrazol-1-yl)propan-2-ol [Example 240]”, the IC50 was 22.6 nM at human A2B receptors and 1.2 nM against human A2A receptors.

For “(S or R)-1-(4-((2S,5R or 2R5S)-5-(5-amino-9-fluoro- 8-methoxy-[1,2,4]triazolo[1,5-c]quinazolin-2-yl)-2- methylpiperidin-1-yl)-1H-pyrazol-1-yl)propan-2-ol [Example 241]”, the values for the IC50 against human A2B receptors and on human A2A receptors were 21.7 nM and 1.3 nM, respectively.

Values taken from patent US11312719B2, “9-substituted amino triazolo quinazoline derivatives as adenosine receptor antagonists, pharmaceutical compositions and their use” (Merck Sharp & Dohme Corp., priority 2018, dated 2022).
